Source: ChEMBL document CHEMBL3232814, “Synthesis and anticancer structure activity relationship investigation of cationic anthraquinone analogs” (2014)

How the values were obtained:
Staphylococcus aureus = experiment: Antimicrobial activity against Staphylococcus aureus ATCC 25923 after 12 to 18 hrs by 2-fold serial dilution method; format: functional
[1] = tested on: NCI-60 human cancer cell line panel (Homo sapiens); experiment: Anticancer activity against NCI 60 human cancer cell lines assessed as mean cell growth in single dose assay
KM12 = experiment: Growth inhibition of human KM12 cells; format: functional; details: for CC50: read-out: LC50 (the source's name)
[2] = Growth inhibition of human EKVX cells; format: functional; details: for CC50: read-out: LC50 (the source's name)
NCI-H23 = experiment: Growth inhibition of human NCI-H23 cells; format: functional; details: for CC50: read-out: LC50 (the source's name)
HT-29 = experiment: Growth inhibition of human HT-29 cells; format: functional
[3] = Growth inhibition of human HCT15 cells; format: functional; details: for GI50: HCT-15; for CC50: HCT-15, read-out: LC50 (the source's name)
SK-MEL-28 = experiment: Growth inhibition of human SK-MEL-28 cells; format: functional; details: for CC50: read-out: LC50 (the source's name)
NCI-H460 = experiment: Growth inhibition of human NCI-H460 cells; format: functional; details: for CC50: read-out: LC50 (the source's name)
[4] = Growth inhibition of human LOXIMVI cells; format: functional; details: LOX IMVI; for CC50: read-out: LC50 (the source's name)
SK-MEL-5 = experiment: Growth inhibition of human SK-MEL-5 cells; format: functional
SNB-19 = experiment: Growth inhibition of human SNB19 cells; format: functional
NCI-H522 = experiment: Growth inhibition of human NCI-H522 cells; format: functional; details: for CC50: read-out: LC50 (the source's name)
U-251 = experiment: Growth inhibition of human U251 cells; format: functional
HCT-116 = experiment: Growth inhibition of human HCT116 cells; format: functional; details: for CC50: read-out: LC50 (the source's name)
SW-620 = experiment: Growth inhibition of human SW620 cells; format: functional; details: for CC50: read-out: LC50 (the source's name)
COLO 205 = experiment: Growth inhibition of human COLO205 cells; format: functional; details: for CC50: read-out: LC50 (the source's name)
M14 = experiment: Growth inhibition of human M14 cells; format: functional; details: for CC50: read-out: LC50 (the source's name)
[5] = Growth inhibition of human UACC62 cells; format: functional; details: for GI50: UACC-62; for CC50: UACC-62, read-out: LC50 (the source's name)
A549 = experiment: Growth inhibition of human A549 cells; format: functional; details: for CC50: read-out: LC50 (the source's name)
Malme-3M = experiment: Growth inhibition of human MALME-3M cells; format: functional; details: for CC50: read-out: LC50 (the source's name)
[6] = Growth inhibition of human NCI60 cells assessed as cell growth; format: functional; parameters: concentration or dose not given beside the values
SNB-75 = experiment: Growth inhibition of human SNB75 cells; format: functional; details: for CC50: read-out: LC50 (the source's name)
SK-MEL-2 = experiment: Growth inhibition of human SK-MEL-2 cells; format: functional; details: for CC50: read-out: LC50 (the source's name)
[7] = Growth inhibition of human HOP92 cells; format: functional; details: for GI50: HOP-92; for CC50: HOP-92, read-out: LC50 (the source's name)
SF-268 = experiment: Growth inhibition of human SF268 cells; format: functional; details: for CC50: read-out: LC50 (the source's name)
[8] = Growth inhibition of human SF539 cells; format: functional; details: for GI50: SF-539; for CC50: SF-539, read-out: LC50 (the source's name)
[9] = Growth inhibition of human UACC257 cells; format: functional; details: for GI50: UACC-257; for CC50: UACC-257, read-out: LC50 (the source's name)
[10] = Growth inhibition of human HCC2998 cells; format: functional; details: for GI50: HCC 2998; for CC50: HCC 2998, read-out: LC50 (the source's name)
MDA-MB-435 = experiment: Growth inhibition of human MDA-MB-435 cells; format: functional; details: for CC50: read-out: LC50 (the source's name)
HOP-62 = experiment: Growth inhibition of human HOP62 cells; format: functional; details: for CC50: read-out: LC50 (the source's name)
[11] = Growth inhibition of human SF295 cells; format: functional; details: SF-295
NCI-H226 = experiment: Growth inhibition of human NCI-H226 cells; format: functional; details: for CC50: read-out: LC50 (the source's name)
NCI-H322M = experiment: Growth inhibition of human NCI-H322M cells; format: functional

## CCCCCCCCn1n[n+](C)c2c1C(=O)c1ccccc1C2=O.[Cl-]
Staphylococcus aureus
  MIC: 0.032 µg/mL
[1]
  Activity: 44.8%

## COc1ccc(-n2n[n+](C)c3c2C(=O)c2ccccc2C3=O)cc1.O=S(=O)([O-])C(F)(F)F
KM12
  GI50: 970 nM
  CC50: 6240 nM
[2]
  GI50: 2420 nM
  CC50: 33000 nM
NCI-H23
  GI50: 1050 nM
  CC50: > 100000 nM
HT-29
  GI50: 380 nM
  LC50: > 100000 nM
[3]
  GI50: 1230 nM
  CC50: 7170 nM
SK-MEL-28
  GI50: 1130 nM
  CC50: 6520 nM
NCI-H460
  GI50: 300 nM
  CC50: 6320 nM
[4]
  GI50: 1240 nM
Staphylococcus aureus
  MIC: 4 µg/mL
SK-MEL-5
  GI50: 160 nM
  LC50 (lethal concentration 50): 610 nM
SNB-19
  GI50: 1010 nM
  LC50: 4940 nM
NCI-H522
  GI50: 2050 nM
  CC50: 18200 nM
U-251
  GI50: 1160 nM
  LC50: 5770 nM
HCT-116
  GI50: 370 nM
  CC50: > 100000 nM
SW-620
  GI50: 380 nM
  CC50: 5330 nM
COLO 205
  GI50: 230 nM
  CC50: 960 nM
M14
  GI50: 210 nM
  CC50: 880 nM
[5]
  GI50: 1010 nM
  CC50: 6160 nM
A549
  GI50: 330 nM
  CC50: > 100000 nM
Malme-3M
  GI50: 240 nM
  CC50: 2110 nM
[6]
  Activity: -24.7%
SNB-75
  GI50: 1250 nM
  CC50: 5150 nM
SK-MEL-2
  GI50: 2050 nM
  CC50: > 100000 nM
[7]
  GI50: 3470 nM
  CC50: > 100000 nM
SF-268
  GI50: 1720 nM
  CC50: > 100000 nM
[8]
  GI50: 1280 nM
  CC50: 5600 nM
[9]
  GI50: 1450 nM
  CC50: 5520 nM
[10]
  GI50: 450 nM
  CC50: 4720 nM
MDA-MB-435
  GI50: 190 nM
  CC50: 680 nM
HOP-62
  GI50: 980 nM
  CC50: 5140 nM
[11]
  GI50: 630 nM
  LC50 (concentration killing 50% of cells): 5250 nM

## C[n+]1nn(Cc2ccccc2)c2c1C(=O)c1ccccc1C2=O.[Cl-]
Staphylococcus aureus
  MIC: 2 µg/mL
[1]
  Activity: -37.9%

## C[n+]1nn(-c2ccccc2)c2c1C(=O)c1ccccc1C2=O.[Cl-]
KM12
  GI50: 820 nM
  CC50: 9300 nM
[2]
  GI50: 1890 nM
  CC50: 12600 nM
NCI-H23
  GI50: 980 nM
  CC50: 6540 nM
HT-29
  GI50: 400 nM
  LC50: > 100000 nM
[3]
  GI50: 1290 nM
  CC50: 6370 nM
SK-MEL-28
  GI50: 1190 nM
  CC50: 6470 nM
NCI-H460
  GI50: 300 nM
  CC50: 4230 nM
[4]
  GI50: 1160 nM
  CC50: 5550 nM
Staphylococcus aureus
  MIC: 8 µg/mL
SK-MEL-5
  GI50: 180 nM
  LC50 (lethal concentration 50): 550 nM
SNB-19
  GI50: 1070 nM
  LC50: 4340 nM
NCI-H522
  GI50: 11500 nM
  CC50: 7740 nM
U-251
  GI50: 1260 nM
  LC50: 4330 nM
NCI-H226
  CC50: 5300 nM
HCT-116
  GI50: 320 nM
  CC50: 1500 nM
SW-620
  GI50: 550 nM
  CC50: 3840 nM
COLO 205
  GI50: 190 nM
  CC50: 620 nM
M14
  GI50: 200 nM
  CC50: 550 nM
[5]
  GI50: 1090 nM
  CC50: 5230 nM
A549
  GI50: 350 nM
  CC50: 5460 nM
Malme-3M
  GI50: 210 nM
  CC50: 650 nM
[6]
  Activity: -10.18%
SNB-75
  GI50: 640 nM
  CC50: 5870 nM
SK-MEL-2
  GI50: 2180 nM
  CC50: 6440 nM
[7]
  GI50: 4170 nM
  CC50: 9150 nM
SF-268
  GI50: 1640 nM
  CC50: > 100000 nM
[8]
  GI50: 1090 nM
  CC50: 4720 nM
[9]
  GI50: 1700 nM
  CC50: 4490 nM
[10]
  GI50: 340 nM
  CC50: 3690 nM
MDA-MB-435
  GI50: 200 nM
  CC50: 580 nM
HOP-62
  GI50: 760 nM
  CC50: 5570 nM
[11]
  GI50: 540 nM
  LC50 (concentration killing 50% of cells): 4970 nM

## Cn1n[n+](C)c2c1C(=O)c1ccccc1C2=O.[Cl-]
Staphylococcus aureus
  MIC: 2 µg/mL
[1]
  Activity: -46%

## Cc1ccc(-n2n[n+](C)c3c2C(=O)c2ccccc2C3=O)cc1.O=S(=O)([O-])C(F)(F)F
KM12
  GI50: 1380 nM
  CC50: 13900 nM
[2]
  GI50: 4160 nM
  CC50: 46800 nM
NCI-H23
  GI50: 650 nM
  CC50: 6070 nM
HT-29
  GI50: 2100 nM
  LC50: > 100000 nM
[3]
  GI50: 2440 nM
  CC50: 41200 nM
SK-MEL-28
  GI50: 2650 nM
  CC50: 36500 nM
NCI-H460
  GI50: 330 nM
  CC50: 6130 nM
[4]
  GI50: 1800 nM
  CC50: 23000 nM
Staphylococcus aureus
  MIC: 4 µg/mL
NCI-H322M
  GI50: 880 nM
NCI-H322M; read-out: LC50 (the source's name)
  CC50: 5380 nM
SNB-19
  GI50: 1390 nM
  LC50: 5480 nM
NCI-H522
  GI50: 8140 nM
  CC50: 60000 nM
U-251
  GI50: 2430 nM
  LC50: 31800 nM
NCI-H226
  GI50: 2930 nM
  CC50: 36100 nM
HCT-116
  GI50: 1550 nM
  CC50: 7920 nM
SW-620
  GI50: 1760 nM
  CC50: 19200 nM
COLO 205
  GI50: 430 nM
  CC50: 4430 nM
M14
  GI50: 260 nM
  CC50: 3570 nM
[5]
  GI50: 1650 nM
  CC50: 6380 nM
A549
  GI50: 1110 nM
  CC50: 10000 nM
Malme-3M
  GI50: 320 nM
  CC50: 13000 nM
[6]
  Activity: 11.53%
SNB-75
  GI50: 2090 nM
  CC50: 8910 nM
SK-MEL-2
  GI50: 2170 nM
  CC50: 41100 nM
[7]
  GI50: 420 nM
  CC50: 46800 nM
SF-268
  GI50: 3140 nM
  CC50: 4430 nM
[8]
  GI50: 1970 nM
  CC50: 9890 nM
[9]
  GI50: 1850 nM
  CC50: 17700 nM
[10]
  GI50: 1130 nM
  CC50: 5400 nM
MDA-MB-435
  GI50: 170 nM
  CC50: 600 nM
HOP-62
  GI50: 2160 nM
  CC50: 17800 nM
[11]
  GI50: 1040 nM
  LC50 (concentration killing 50% of cells): 5400 nM
